3 compounds from patent publication EP0016703A1, “Lysine salt of (+/-) 3-amino-4-(1-pyrrolyl)-alpha-methylphenyl-acetic acid, process for its preparation and pharmaceutical composition containing it” (LIPHA, LYONNAISE INDUSTRIELLE PHARMACEUTIQUE, priority 1979, dated 1980) can be followed below.

The nature of one data set: in vivo. The conditions noted are these: in vivo. An excerpt:
(§1) A - La DL 50 a été déterminée chez la souris et le rat par les voies orale et I.V., selon MILLER et TAINTER (Proc. Soc. Exp. Biol. Medecine, 1944, 57, 261.

For data set [1], the system named is contractions douloureuses. In words: Analgesic activity, acetic acid writhing test (Koster et al.). It is filed as in vivo. To be noted: souris, Administration P.O, dose that reduces the number of painful contractions by 50 %. The text has this: B - L'activité analgésique a été déterminée chez 1a souris par la méthode de KOSTER et Col. (Fed. Proc. 1959, 18, 412). On détermine la dose efficace 50, dose qui administrée P.O. diminue de 50 % le nombre des contractions douloureuses déclenchées par l'injection in- trapéritonéale d'une solution diluée d'acide acétique.
(In writhing tests, fewer writhes than in controls are read as antinociception.)

For the next data set, the system named is oedème à la carragénine. In words: Anti-inflammatory activity, carrageenan oedema test (Winter et al.). The format is in vivo. The conditions noted are these: Administration P.O, dose that inhibits the oedema by 30 %; for ED30: Rattus norvegicus, po, read-out: Oedème à la carra-génine DE.30. The text has this:
C - L'activité anti-inflammatoire a été démontrée par le test de l'oedème à la carragénine, selon WINTER et Col. (Proc. Exp. Biol. Med., 1962, 111, 544. On recherche .la protection que confère le traitement par le pro- duit administré P.O. au rat, vis à vis d'un oedème déclenché par injection sous la voûte plantaire, d'une suspension de carragénine. La dose efficace 30 est celle qui inhibe l'oedème de 30 %.

Another data set deals with érythème aux U.V. Put plainly: Protection against early inflammation, UV erythema method (Winder et al.). It is filed as in vivo. The conditions noted are these: cobaye albinos, Administration P.O, dose that moderates erythema intensity by 50 %; for ED50: Cavia porcellus, po, read-out: Erythème aux U.V. DE.50. The text has this: D - L'activité protectrice vis-à-vis de l'inflammation précoce a été mise en évidence sur le cobaye albinos selon la méthode de l'érythème aux U.V. (WINDER et Col., Arch. Int. Pharmacodyn. 1958, 116, 261). La dose efficace 50 est la dose qui.donnée P.O., modère de 50 % l'intensité de l'érythème induit par exposition à un rayonnement U.V. de la surface dorsale épilée des cobayes.

The next data set has as its system rat. In words: in vivo.
From the text: as §1

A further data set has as its system souris. Put plainly: in vivo. To be noted: P.O.
From the text: as §1

A short description of another data set: Solubility in water. The format is physicochemical.

The structures appear in SMILES notation. Where two headings read alike, the source gives them in different places. Where only a bound is given, the exact number is not on record here.

For `CC(C(=O)O)c1ccc(-n2cccc2)c(N)c1` (racemic) [Composé B, acide (±) amino-3 (pyrrolyl-1') -4α- méthyl phényl acétique], the LD50 in “in vivo” (mouse, po, souris, P.O., read-out: DL. 50 souris P.O.) came to 3000 mg/kg; in the data set “in vivo” (rat, po, P.O., read-out: DL. 50 rat P.O.), 392 ± 50 mg/kg. For the same compound, the “Acide acétique DE.50” value in data set [1] came out at 19 mg/kg. Also, the ED30 in the data set on oedème à la carragénine stood at 12 mg/kg. Further, the ED50 in the data set on érythème aux U.V. was found to be 4.7 mg/kg.
With `CCCCC1C(=O)N(c2ccccc2)N(c2ccccc2)C1=O` [Phénylbuta-zone, butyl-4 diphényl-1,2 pyrazolidine dione-3,5], the ED50 in data set [1] (Mus musculus, po, read-out: Acide acétique DE.50) came out at 93 mg/kg; in the data set on érythème aux U.V., 3.7 mg/kg. The ED30 in the data set on oedème à la carragénine amounted to 35 mg/kg.
For `CC(C(=O)O)c1ccc(-n2cccc2)c(N)c1` (racemic) [Composé C, sel de (±) lysine de l'acide (±) amino-3 (pyrrolyl-l')-4 α- méthyl phénylacétique], the LD50 in the data set “in vivo” (mouse, iv, souris, I.V., read-out: DL. 50 souris I.V.) was > 1600 mg/kg. Moreover, the “DL. 50 rat P.O.” value in the data set on rat worked out at 697 ± 103 mg/kg. Also, the “DL. 50 souris P.O.” value with souris is recorded as >3200 mg/kg. The “Acide acétique DE.50” value in data set [1] is recorded as 42 mg/kg. Further, the “Oedème à la carra-génine DE.30” value in the data set with oedème à la carragénine (rat) is recorded as 15 mg/kg. In addition, the “Erythème aux U.V. DE.50” value in the data set on érythème aux U.V. is listed as 4,8 mg/kg. The “solubilité dans l'eau” value in “Solubility in water” was “parfaite solubilité dans l'eau”.
